The values that follow come from article PMC10649178, “Exploring the Interactions of Soybean 7S Globulin with Gallic Acid, Chlorogenic Acid and (−)-Epigallocatechin Gallate” (Foods, 2023).

Molecules are shown by their SMILES. Marks after values point to notes of the source that are not given here.

In test [1] the target is T1, soybean 7S globulin (7S; β-conglycinin) (Glycine max, UniProt P0DO16+P11827+P25974).
T1 construct: gene CG-1; mature trimers of α, α’ and β, 150-180 kDa
T1 sequence (P11827 63-621): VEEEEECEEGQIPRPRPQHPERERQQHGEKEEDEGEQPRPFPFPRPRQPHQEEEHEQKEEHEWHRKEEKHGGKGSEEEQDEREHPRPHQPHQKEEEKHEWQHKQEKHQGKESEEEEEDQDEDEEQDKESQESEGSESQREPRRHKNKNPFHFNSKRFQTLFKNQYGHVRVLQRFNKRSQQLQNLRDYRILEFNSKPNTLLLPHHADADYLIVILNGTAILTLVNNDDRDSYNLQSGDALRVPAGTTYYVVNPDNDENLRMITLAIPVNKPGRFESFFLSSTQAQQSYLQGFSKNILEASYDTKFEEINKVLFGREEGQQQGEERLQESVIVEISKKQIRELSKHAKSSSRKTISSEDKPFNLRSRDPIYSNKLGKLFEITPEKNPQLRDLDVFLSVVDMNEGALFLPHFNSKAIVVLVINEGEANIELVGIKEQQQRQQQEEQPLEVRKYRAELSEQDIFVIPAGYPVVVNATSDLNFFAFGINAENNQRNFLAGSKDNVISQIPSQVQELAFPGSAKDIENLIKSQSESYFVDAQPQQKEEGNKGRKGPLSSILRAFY
T1 sequence (P0DO16 63-605): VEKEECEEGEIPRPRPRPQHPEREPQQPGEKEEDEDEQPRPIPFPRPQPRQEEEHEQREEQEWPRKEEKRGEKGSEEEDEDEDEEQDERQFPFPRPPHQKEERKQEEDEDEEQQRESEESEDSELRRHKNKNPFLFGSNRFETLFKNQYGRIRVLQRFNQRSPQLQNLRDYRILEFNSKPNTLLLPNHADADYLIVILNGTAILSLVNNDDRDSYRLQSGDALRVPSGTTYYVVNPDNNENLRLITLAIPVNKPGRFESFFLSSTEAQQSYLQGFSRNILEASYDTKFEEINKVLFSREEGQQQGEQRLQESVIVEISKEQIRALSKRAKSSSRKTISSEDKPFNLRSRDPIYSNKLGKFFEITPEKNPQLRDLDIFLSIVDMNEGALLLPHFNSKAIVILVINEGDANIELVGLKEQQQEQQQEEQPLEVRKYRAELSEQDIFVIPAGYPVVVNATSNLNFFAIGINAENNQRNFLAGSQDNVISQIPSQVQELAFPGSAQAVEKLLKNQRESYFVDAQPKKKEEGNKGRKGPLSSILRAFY
T1 sequence (P25974 24-439): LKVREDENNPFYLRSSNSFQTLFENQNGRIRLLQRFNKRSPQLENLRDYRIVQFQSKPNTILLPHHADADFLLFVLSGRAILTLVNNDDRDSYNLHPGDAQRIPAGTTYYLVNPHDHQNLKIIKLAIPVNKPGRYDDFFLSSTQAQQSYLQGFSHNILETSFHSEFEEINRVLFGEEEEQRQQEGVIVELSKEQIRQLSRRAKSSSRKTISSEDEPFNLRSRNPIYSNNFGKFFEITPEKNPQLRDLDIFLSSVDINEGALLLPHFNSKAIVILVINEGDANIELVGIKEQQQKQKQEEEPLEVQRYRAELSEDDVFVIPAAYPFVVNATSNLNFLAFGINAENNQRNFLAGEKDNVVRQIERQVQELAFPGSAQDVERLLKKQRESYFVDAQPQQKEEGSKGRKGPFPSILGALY
The test can be described thus: isothermal titration calorimetry, one-site model. It counts as binding. As to conditions: 10 mM phosphate pH 7.0, 25 °C, 5 mM ligand. From the text:
isothermal titration calorimetry, one-site model on soybean 7S globulin (7S; β-conglycinin)
(In general: Isothermal titration calorimetry measures the heat released or taken up as one component is titrated into another.)

The target in test [2] is T1, soybean 7S globulin (7S; β-conglycinin). The test can be described thus: intrinsic fluorescence quenching, double-logarithmic fit. It counts as binding. As to conditions: 10 mM phosphate pH 7.0, 298 K, 10 μM 7S, 0-12 μM ligand. From the text:
intrinsic fluorescence quenching, double-logarithmic fit on soybean 7S globulin (7S; β-conglycinin)

In general, Kd refers to the equilibrium constant for the complex coming apart. Lower therefore signals tighter binding. As to `O=C(O)c1cc(O)c(O)c(O)c1` [GA, gallic acid], in test [1] (10 μM 7S, N = 10.0 sites), the Kd worked out at 720 µM. Further, the “Ka (10^4 L/mol)” value in test [2] (n = 1.12) is recorded as 5.10 ± 0.30 (10^4).

In test [1] (10 μM 7S, N = 7.23 sites), `O=C(/C=C/c1ccc(O)c(O)c1)O[C@@H]1C[C@](O)(C(=O)O)C[C@@H](O)[C@H]1O` [CA, chlorogenic acid] came in with a Kd of 444 µM. The “Ka (10^4 L/mol)” value in test [2] (n = 1.42) is 7.44 ± 0.32 (10^4).

In test [1] (5 μM 7S, N = 1.68 sites), `O=C(O[C@@H]1Cc2c(O)cc(O)cc2O[C@@H]1c1cc(O)c(O)c(O)c1)c1cc(O)c(O)c(O)c1` [EGCG, (−)-epigallocatechin gallate] displayed a Kd of 485 µM. Besides, the “Ka (10^4 L/mol)” value in test [2] (n = 1.25) was 6.23 ± 0.30 (10^4).
